For one compound, IC50 results are on record in doi:10.1101/2025.10.06.680810v1 (biorxiv, 2025).

In the assay the target is NLRP3 (purified) (Homo sapiens, UniProt Q96P20, K138A/K142A/R137C). The assay can be described thus: fluorescence polarization displacement. Format: binding. For orientation: Fluorescence polarisation rises when a labelled molecule tumbles more slowly, as on binding a larger partner.
Chain of NLRP3 (purified) (Q96P20 136-1034 R137C/K138A/K142A): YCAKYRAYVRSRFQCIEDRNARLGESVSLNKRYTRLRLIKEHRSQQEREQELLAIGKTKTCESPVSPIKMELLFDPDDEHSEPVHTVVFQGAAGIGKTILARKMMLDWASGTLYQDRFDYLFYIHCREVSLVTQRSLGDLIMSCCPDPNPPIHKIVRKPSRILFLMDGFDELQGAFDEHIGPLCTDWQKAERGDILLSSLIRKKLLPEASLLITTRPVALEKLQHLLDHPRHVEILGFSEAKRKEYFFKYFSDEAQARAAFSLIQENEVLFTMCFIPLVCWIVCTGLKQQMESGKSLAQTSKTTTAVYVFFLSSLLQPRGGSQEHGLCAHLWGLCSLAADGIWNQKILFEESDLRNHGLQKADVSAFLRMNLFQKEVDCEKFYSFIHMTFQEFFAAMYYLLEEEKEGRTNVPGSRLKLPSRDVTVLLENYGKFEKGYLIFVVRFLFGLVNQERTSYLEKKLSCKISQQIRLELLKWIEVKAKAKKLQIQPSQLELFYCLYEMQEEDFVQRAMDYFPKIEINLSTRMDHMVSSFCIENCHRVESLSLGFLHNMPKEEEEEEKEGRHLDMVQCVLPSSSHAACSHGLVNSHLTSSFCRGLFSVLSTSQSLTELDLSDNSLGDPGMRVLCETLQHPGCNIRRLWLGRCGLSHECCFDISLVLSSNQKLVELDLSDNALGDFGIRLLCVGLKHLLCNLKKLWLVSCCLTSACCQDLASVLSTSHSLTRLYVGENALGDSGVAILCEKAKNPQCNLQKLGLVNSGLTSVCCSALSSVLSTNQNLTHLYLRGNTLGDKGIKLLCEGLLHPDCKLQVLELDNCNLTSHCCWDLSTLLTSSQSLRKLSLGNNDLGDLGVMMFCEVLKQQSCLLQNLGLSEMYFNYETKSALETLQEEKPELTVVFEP

A word on the IC50: it is the concentration that inhibits the measured activity by half. The low end stands for higher potency, the high end for lower potency. Consider `O=C(CN1C[C@@H](C(F)(F)F)c2cc(I)ccc2C1=O)Nc1ncc(F)cn1` [TN-783, N-(5-fluoropyrimidin-2-yl)-2-[(4s)-6-iodo-1-oxo-4-(trifluoromethyl)-3,4-dihydroisoquinolin-2-yl]acetamide], for which the IC50 worked out at 0.0193 ± 0.0022 µM.
